Data taken from PMC9000719, “Design, Synthesis and Bioactivity Evaluation of Coumarin–BMT Hybrids as New Acetylcholinesterase Inhibitors” (Molecules, 2022).
Values joined by “and” are separate entries in the source; they are usually repeats but may differ in a detail not shown here. Equal entries are not always repeated. “Also recorded” adds a separate entry of the source. Marks after values point to notes of the source that are not given here.

Legend:
Assay type in all cases: biochemical
[1] = molecular target: T1, Acetylcholinesterase (AChE, E.C. 3.1.1.7, from electric eel) (Electrophorus electricus, UniProt O42275); assay: Crude screening on AChE inhibition (Ellman method); settings: 2 μM compounds; means ± SEM of at least three independent experiments; normalized as percentage of control
T1 construct: purchased Sigma Aldrich
T1 sequence (O42275 24-633): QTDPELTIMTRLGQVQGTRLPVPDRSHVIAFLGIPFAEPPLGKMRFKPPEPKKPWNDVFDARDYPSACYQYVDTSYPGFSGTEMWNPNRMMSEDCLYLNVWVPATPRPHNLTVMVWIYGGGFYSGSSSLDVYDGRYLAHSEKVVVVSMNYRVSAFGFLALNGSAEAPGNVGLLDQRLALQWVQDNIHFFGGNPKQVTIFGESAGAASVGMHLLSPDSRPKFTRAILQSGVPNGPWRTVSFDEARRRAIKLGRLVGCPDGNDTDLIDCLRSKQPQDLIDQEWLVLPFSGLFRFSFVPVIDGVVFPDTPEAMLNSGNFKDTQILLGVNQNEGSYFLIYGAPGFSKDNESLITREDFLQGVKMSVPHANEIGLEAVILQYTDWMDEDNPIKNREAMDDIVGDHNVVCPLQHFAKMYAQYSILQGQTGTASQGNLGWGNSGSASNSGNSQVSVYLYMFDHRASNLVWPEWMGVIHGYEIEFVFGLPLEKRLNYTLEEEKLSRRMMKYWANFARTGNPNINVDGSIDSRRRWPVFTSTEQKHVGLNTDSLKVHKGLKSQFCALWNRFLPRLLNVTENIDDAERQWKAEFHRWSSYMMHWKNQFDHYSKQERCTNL

[2] = molecular target: T2, AChE (Electrophorus electricus); assay: biochemical; settings: inhibition constant against AChE; substrate ATCI at two concentrations
T2 construct: purchased Sigma Aldrich
T2 sequence (O42275 24-633): as above
Experimental: (§1) Kinetic characterization was performed using Dixon’s method. […] Assay medium contained DTNB solution 15 mM (40 µL), AChE solution 10 units/mL (50 µL), substrate solutions (10 µL) and various concentrations of tested compounds (20 µL). […] Results were computed and presented on the Lineweaver–Burk plot to determine the Ki value and to distinguish the type of enzyme inhibition.

[3] = tested on: T3, human AChE (Electrophorus electricus); assay: biochemical; settings: Lineweaver–Burk plots
T3 construct: purchased Sigma Aldrich
T3 sequence (O42275 24-633): as above
Experimental: as §1

| Molecule | Inhibition Ratio (%) [1] | Ki [2] [nM] | type of enzyme inhibition [3] |
| --- | --- | --- | --- |
| 2-oxo-7-(trifluoromethoxy)-N-(6-((4,11,11-trimethyl-1,2,3,4-tetrahydro-1,4-methanoacridin-9-yl)amino)hexyl)-2H-chromene-3-carboxamide [Compound 8d] | 62.92 ± 3.32 ^e % |  |  |
| 7-bromo-2-oxo-N-(6-((4,11,11-trimethyl-1,2,3,4-tetrahydro-1,4-methanoacridin-9-yl)amino)hexyl)-2H-chromene-3-carboxamide [Compound 8c] | 57.58 ± 3.30 ^fg % |  |  |
| CC12CCC(c3c1nc1ccccc1c3NCCCCCNC(=O)c1cc3ccccc3oc1=O)C2(C)C (centres unmarked) [Compound 7a, 2-oxo-N-(5-((4,11,11-trimethyl-1,2,3,4-tetrahydro-1,4-methanoacridin-9-yl)amino)pentyl)-2H-chromene-3-carboxamide] | 71.11 ± 0.94 ^d % |  |  |
| Cc1ccc2oc(=O)c(C(=O)NCCCCCNc3c4c(nc5ccccc35)C3(C)CCC4C3(C)C)cc2c1 (centres unmarked) [Compound 7b, 6-methyl-2-oxo-N-(5-((4,11,11-trimethyl-1,2,3,4-tetrahydro-1,4-methanoacridin-9-yl)amino)pentyl)-2H-chromene-3-carboxamide] | 85.71 ± 1.66 ^bc % | 190 |  |
| CC12CCC(c3c1nc1ccccc1c3NCCCCCNC(=O)c1cc3cc(Br)ccc3oc1=O)C2(C)C (centres unmarked) [Compound 7c, 6-bromo-2-oxo-N-(5-((4,11,11-trimethyl-1,2,3,4-tetrahydro-1,4-methanoacridin-9-yl)amino)pentyl)-2H-chromene-3-carboxamide] | 50.72 ± 2.98 ^h % |  |  |
| CC12CCC(c3c1nc1ccccc1c3NCCCCCNC(=O)c1cc3cc(OC(F)(F)F)ccc3oc1=O)C2(C)C (centres unmarked) [Compound 7d, 2-oxo-6-(trifluoromethoxy)-N-(5-((4,11,11-trimethyl-1,2,3,4-tetrahydro-1,4-methanoacridin-9-yl)amino)pentyl)-2H-chromene-3-carboxamide] | 47.51 ± 2.65 ^hi % |  |  |
| COc1ccc2oc(=O)c(C(=O)NCCCCCNc3c4c(nc5ccccc35)C3(C)CCC4C3(C)C)cc2c1 (centres unmarked) [Compound 7e, 6-methoxy-2-oxo-N-(5-((4,11,11-trimethyl-1,2,3,4-tetrahydro-1,4-methanoacridin-9-yl)amino)pentyl)-2H-chromene-3-carboxamide] | 86.68 ± 2.18 ^b % | 65.1 |  |
| COc1ccc2cc(C(=O)NCCCCCNc3c4c(nc5ccccc35)C3(C)CCC4C3(C)C)c(=O)oc2c1 (centres unmarked) [Compound 7f, 7-methoxy-2-oxo-N-(5-((4,11,11-trimethyl-1,2,3,4-tetrahydro-1,4-methanoacridin-9-yl)amino)pentyl)-2H-chromene-3-carboxamide] | 81.70 ± 4.82 ^c % | 118 |  |
| COc1cc2cc(C(=O)NCCCCCNc3c4c(nc5ccccc35)C3(C)CCC4C3(C)C)c(=O)oc2cc1OC (centres unmarked) [Compound 7g, 6,7-dimethoxy-2-oxo-N-(5-((4,11,11-trimethyl-1,2,3,4-tetrahydro-1,4-methanoacridin-9-yl)amino)pentyl)-2H-chromene-3-carboxamide] | 84.75 ± 1.27 ^bc % | 153 |  |
| CC12CCC(c3c1nc1ccccc1c3NCCCCCCNC(=O)c1cc3ccccc3oc1=O)C2(C)C (centres unmarked) [Compound 8a, 2-oxo-N-(6-((4,11,11-trimethyl-1,2,3,4-tetrahydro-1,4-methanoacridin-9-yl)amino)hexyl)-2H-chromene-3-carboxamide] | 66.57 ± 1.09 ^de % |  |  |
| Cc1ccc2oc(=O)c(C(=O)NCCCCCCNc3c4c(nc5ccccc35)C3(C)CCC4C3(C)C)cc2c1 (centres unmarked) [Compound 8b] | 86.60% and 86.60 ± 2.13 ^b % | 49.2 | mixed-type inhibition; also recorded: mixed-type inhibitor |
| COc1ccc2oc(=O)c(C(=O)NCCCCCCNc3c4c(nc5ccccc35)C3(C)CCC4C3(C)C)cc2c1 (centres unmarked) [Compound 8e, 6-methoxy-2-oxo-N-(6-((4,11,11-trimethyl-1,2,3,4-tetrahydro-1,4-methanoacridin-9-yl)amino)hexyl)-2H-chromene-3-carboxamide] | 87.48% and 87.48 ± 0.27 ^b % | 50.8 | mixed-type inhibition; also recorded: mixed-type inhibitor |
| COc1ccc2cc(C(=O)NCCCCCCNc3c4c(nc5ccccc35)C3(C)CCC4C3(C)C)c(=O)oc2c1 (centres unmarked) [Compound 8f, 7-methoxy-2-oxo-N-(6-((4,11,11-trimethyl-1,2,3,4-tetrahydro-1,4-methanoacridin-9-yl)amino)hexyl)-2H-chromene-3-carboxamide] | 62.44 ± 1.63 ^e % |  |  |
| COc1cc2cc(C(=O)NCCCCCCNc3c4c(nc5ccccc35)C3(C)CCC4C3(C)C)c(=O)oc2cc1OC (centres unmarked) [Compound 8g, 6,7-dimethoxy-2-oxo-N-(6-((4,11,11-trimethyl-1,2,3,4-tetrahydro-1,4-methanoacridin-9-yl)amino)hexyl)-2H-chromene-3-carboxamide] | 62.74 ± 0.27 ^e % |  |  |
| CC12CCC(c3c1nc1ccccc1c3NCCCCCCCNC(=O)c1cc3ccccc3oc1=O)C2(C)C (centres unmarked) [Compound 9a, 2-oxo-N-(7-((4,11,11-trimethyl-1,2,3,4-tetrahydro-1,4-methanoacridin-9-yl)amino)heptyl)-2H-chromene-3-carboxamide] | 40.65 ± 4.28 ^j % |  |  |
| Cc1ccc2oc(=O)c(C(=O)NCCCCCCCNc3c4c(nc5ccccc35)C3(C)CCC4C3(C)C)cc2c1 (centres unmarked) [Compound 9b, 6-methyl-2-oxo-N-(7-((4,11,11-trimethyl-1,2,3,4-tetrahydro-1,4-methanoacridin-9-yl)amino)heptyl)-2H-chromene-3-carboxamide] | 61.56 ± 4.65 ^ef % |  |  |
| CC12CCC(c3c1nc1ccccc1c3NCCCCCCCNC(=O)c1cc3cc(Br)ccc3oc1=O)C2(C)C (centres unmarked) [Compound 9c, 6-bromo-2-oxo-N-(7-((4,11,11-trimethyl-1,2,3,4-tetrahydro-1,4-methanoacridin-9-yl)amino)heptyl)-2H-chromene-3-carboxamide] | 44.05 ± 2.74 ^ij % |  |  |
| CC12CCC(c3c1nc1ccccc1c3NCCCCCCCNC(=O)c1cc3cc(OC(F)(F)F)ccc3oc1=O)C2(C)C (centres unmarked) [Compound 9d, 2-oxo-6-(trifluoromethoxy)-N-(7-((4,11,11-trimethyl-1,2,3,4-tetrahydro-1,4-methanoacridin-9-yl)amino)heptyl)-2H-chromene-3-carboxamide] | 40.35 ± 2.45 ^j % |  |  |
| COc1ccc2oc(=O)c(C(=O)NCCCCCCCNc3c4c(nc5ccccc35)C3(C)CCC4C3(C)C)cc2c1 (centres unmarked) [Compound 9e, 6-methoxy-2-oxo-N-(7-((4,11,11-trimethyl-1,2,3,4-tetrahydro-1,4-methanoacridin-9-yl)amino)heptyl)-2H-chromene-3-carboxamide] | 62.15 ± 3.14 ^ef % |  |  |
| COc1ccc2cc(C(=O)NCCCCCCCNc3c4c(nc5ccccc35)C3(C)CCC4C3(C)C)c(=O)oc2c1 (centres unmarked) [Compound 9f, 7-methoxy-2-oxo-N-(7-((4,11,11-trimethyl-1,2,3,4-tetrahydro-1,4-methanoacridin-9-yl)amino)heptyl)-2H-chromene-3-carboxamide] | 56.11 ± 2.60 ^g % |  |  |
| COc1cc2cc(C(=O)NCCCCCCCNc3c4c(nc5ccccc35)C3(C)CCC4C3(C)C)c(=O)oc2cc1OC (centres unmarked) [Compound 9g, 6,7-dimethoxy-2-oxo-N-(7-((4,11,11-trimethyl-1,2,3,4-tetrahydro-1,4-methanoacridin-9-yl)amino)heptyl)-2H-chromene-3-carboxamide] | 35.49 ± 3.86 ^k % |  |  |
